Ends that are not written are not given here. Peptide text beside a SMILES is read from it.
How the values were obtained:
C57BL/6 mice = test: Delayed type hypersensitivity (DTH) response to oxazolone; type: in vivo, mouse; details: oxazolone sensitization day 0, elicitation day 6, reading day 7; peptide 200 μg daily
Description: DTH model—C57BL/6 mice were painted at their abdomen with oxazolone solution (sensitization). On day 6, the right ear of each mouse was painted with the same hapten, oxazolone (elicitation), to generate delayed type hypersensitivity (DTH) response. The differences in thickness between the right and the left ears, indicating DTH development, were determined by microcaliper 24 hours later. DTH induction indicates a normal immune response. For additional details see Weiss et al., (2000) Proc. Natl. Acad. Sci. USA. 97, 285-290.
Treatment protocol—PBS and 5-mer peptide (SEQ ID NO: 1) at a dose of 200 μg was administered one day before the sensitization and then every day during the sensitization period (7 days).

[1] = system: CIA mice on C57BL/6 background; test: ELISA for neutralizing anti-peptide antibodies in serum of treated CIA mice; type: in vivo, mouse; details: 70 μg per injection i.p., 10 consecutive days; ELISA plates coated with peptide
Description: (§1) Treatment protocol—PBS, or 5-mer RA peptide (SEQ ID NO: 1) at a dose of 70 μg per injection were administered i.p to CIA mice on C57BL/6 background for 10 consecutive days. In all groups first injection was given at the onset of disease as determined by paw swelling.
ELISA—96 wells ELISA plates were coated with 5-mer RA peptide (SEQ ID NO: 1), collagen or immunoglobulin (positive control). Serum from CIA mice treated with PBS or the 5-mer RA peptide was added to the coated plates and the presence of neutralizing antibodies against collagen or the RA peptide was detected with anti-immunoglobulin+detection system. The plate wells were coated with 1 mg/ml peptide or protein. Mouse serum was added to the plate wells for 15 hours in cold temperature. The detection system included HRP-anti-mouse IgG and TMB (Bako) substrate. Plates were analysed using an ELISA reader at a wave length of 450 nm.

[2] = system: fibroblasts from the inflammatory joint of an RA patient; type: cell-based, human
Description: Cells—Fibroblasts from the inflammatory joint of an RA patient were cultured and maintained as shown in Bendersky et al, J Immunol.; 188:4349-59, 2012. A quantity of 20,000 cells was added to each one of the 96 well plates with the indicated concentrations of peptide, serum amyloid A or α-lactalbumin.
MTT assay—MTT assay was effected as shown in Madhyastha et al. (2015) J Clin Diagn Res.; 9 :ZCO5-8.
An in-vitro model was developed as a tool to evaluate the biological activity of the generated RA peptides. To this end, fibroblasts from the inflammatory joint of an RA patient were incubated in-vitro and the effect of the peptides on cell survival was evaluated by a MTT assay.

[3] = system: CIA mice on C57BL/6 background; test: Paw/footpad swelling in CIA mice on C57BL/6 background; type: in vivo, mouse; details: 10 consecutive days; for joint inflammation (paw swelling) vs PBS: 70 μg per injection i.p.
Description: (§2) Mice—Collagen-induced arthritis (CIA) was generated in DBA/1 or C57BL mice by injection of type II collagen as described in Nedvetzki et al., PNAS 101, 18081-18086, 2004.
(§3) Evaluation of joint inflammation—Inflammation was evaluated by the paw swelling response. Paw swelling was measured by micro caliber. Paw swelling at range of 2.1-2.3 mm was considered “onset of disease” and the starting point for injection of the peptides. […] All measurements were performed under blind manner (For additional details see Nedvetzki, et al., (2004) PNAS 101, 18081-18086).
(§4) Treatment protocol—PBS, or the tested peptides [Ac-TRMTADVDR-NH2 (SEQ ID NO: 6), Ac-MTADVDR-NH2 (SEQ ID NO: 5), Ac-MTADV-NH2 (SEQ ID NO: 4) and scrambled Ac-TMDVADR-NH2 (SEQ ID NO: 7)] at doses of 70 or 200 μg per injection were administered i.p to […] for 9-10 consecutive days (see Tables 4-7 below). As a non-specific control, several mice were administered I.P. with Dexamethsone (Dex) at a dose of 50 μg, following the same protocol. In all groups first injection was given at the onset of disease as determined by paw swelling.
Treatment protocol—PBS, or the tested peptide [Ac-MTADV-NH2 (SEQ ID NO: 4)] at doses of 10, 25, 70, 200 or 600 μg per injection were administered i.p to CIA mice for 10 consecutive days (see Tables 8-9 below). In all groups first injection was given at the onset of disease as determined by paw swelling.
To evaluate the optimal anti-inflammatory therapeutic dose of the 5-mer RA peptide, several different doses of the protected peptide (SEQ ID NO: 4) were administered to CIA mice on C57BL/6 background and joint inflammation was determined by footpad swelling measurements (electronic automatic measurements of the volume of the footpad, based on Archimedes observation).

[4] = system: CIA mice on DBA/1 background; test: Paw swelling in collagen-induced arthritis (CIA) mice on DBA/1 background; type: in vivo, mouse; details: for joint inflammation (paw swelling) vs PBS / hind paws that remained healthy (paw swelling less than 2 mm): 200 μg per injection i.p.; for joint inflammation (paw swelling) vs PBS: daily for 9-10 days from onset of disease; for hind paws that remained healthy (paw swelling less than 2 mm): daily for 9 days, CIA DBA/1 mice; for paw swelling response vs PBS: 4 times within 6 days from onset of disease
Description: as §2
as §1, with “protocol—PBS, or the 9-mer RA peptide (SEQ ID NO: 3) at a dose of 25 μg, 100 μg or 150 μg per injection was administered i.p to CIA mice for 4 times within 6 days (see Table 3 below). PBS (n=7),” for “protocol—PBS,”, “1, n=7)” for “1)”
as §3, §4
Evaluation of joint inflammation—As described in Example 2 above. Paw swelling of less than 2 mm was considered healthy.

In the case of `CSCC[C@H](N)C(=O)N[C@H](C(=O)N[C@@H](C)C(=O)N[C@@H](CC(=O)O)C(=O)N[C@H](C(=O)O)C(C)C)[C@@H](C)O` [5-mer RA peptide, MTADV] (H-MTADV-OH), the “DTH response (difference in thickness between right and left ears) vs PBS” value (C57BL/6 mice) is reported as “did not affect the DTH response”, the “neutralizing antibodies to the peptide in serum” value [1] is reported as “no neutralizing antibodies” and the “in-vitro maximal suppressive effect on cell survival” value [2] is reported as 60%.

In the case of “Ac-MTADV-NH2 [5-mer protected RA peptide]”, the “suppressive effect on cell survival compared to the 5-mer RA peptide (SEQ ID NO: 1)” value ([2]; MTT assay) is reported as “improved the suppressive effect”, the “joint inflammation (footpad swelling) vs PBS” value ([3]; 10 μg per injection i.p.) is reported as “did not induce a significant anti-inflammatory effect” and the “joint inflammation (footpad swelling) vs PBS” value ([3]; 25 μg per injection i.p.) is reported as “did not induce a significant anti-inflammatory effect”. For the same molecule, the “joint inflammation (paw swelling) vs PBS” value [3] was “reduced the joint inflammation”, the “joint inflammation (paw swelling) vs PBS” value ([3]; listed as 5-mer protected peptide) was “significantly inhibit joint inflammation” and the “joint inflammation (footpad swelling) vs PBS” value ([3]; 200 μg per injection i.p.) was “reduced the joint inflammation”. The “joint inflammation (footpad swelling) vs PBS” value ([3]; 600 μg per injection i.p.) was “reduced the joint inflammation”, the “optimal and lowest dose for CIA inhibition” value ([3]; doses 10-600 μg i.p.) was 70 μg per injection and the “joint inflammation (paw swelling) vs PBS” value [4] was “reduces joint inflammation”.

With “Ac-MTADVDR-NH2 [7-mer protected RA peptide]” the “joint inflammation (paw swelling) vs PBS” value [4] was “reduces joint inflammation” and the “hind paws that remained healthy (paw swelling less than 2 mm)” value [4] was “more than 60%”.

In the case of Ac-TMDVADR-NH2 [reference compound], the “joint inflammation (paw swelling) vs PBS” value [4] is reported as “no effect on footpad swelling” and the “hind paws that remained healthy (paw swelling less than 2 mm)” value [4] is reported as 33%.

In the case of “Ac-TRMTADVDR-NH2 [9-mer protected RA peptide]”, the “joint inflammation (paw swelling) vs PBS” value [4] is reported as “reduce joint inflammation”.

With “TRMTADVDR (not fully specified (C-terminus)) [9-mer RA peptide]” the “paw swelling response vs PBS” value ([4]; 25 μg per injection i.p.) was “did not show significant difference in paw swelling response”, the “paw swelling response vs PBS” value ([4]; 100 μg per injection i.p.) was “did not show significant difference in paw swelling response” and the “paw swelling response vs PBS” value ([4]; 150 μg per injection i.p.) was “significant reduction in paw swelling”.

B1: Serum Amyloid A (SAA): Serum Amyloid A protein added to the fibroblast culture in combination with the 5-mer peptide (protein)
chain: RSFFSFLGEAFDGARDMWRAYSDMREANYIGSDKYFHARGNYDAAKRGPGGAWAAEVITDARENIQRFFGHGAEDSLADQAANEWGRSGKDPNHFRPAGLPEKY
In the case of B1, the “effect on the 5-mer peptide's inhibition of cell survival” value ([2]; 50 μg/ml added in combination with the 5-mer peptide) is reported as “prevents this inhibition” and the “effect on the 5-mer peptide's reduction of fibroblast survival” value ([2]; escalating concentrations, 5-mer peptide constant at 25 μg/ml) is reported as “gradually prevented this reduction”.
